The results in this text go back to article PMC10087438 (The Febs Journal, 2022).

Series [1] concerns the target T1, PaNADK (NAD kinase from Pseudomonas aeruginosa) (Pseudomonas aeruginosa, UniProt Q9HZC0).
T1 sequence (Q9HZC0 1-295): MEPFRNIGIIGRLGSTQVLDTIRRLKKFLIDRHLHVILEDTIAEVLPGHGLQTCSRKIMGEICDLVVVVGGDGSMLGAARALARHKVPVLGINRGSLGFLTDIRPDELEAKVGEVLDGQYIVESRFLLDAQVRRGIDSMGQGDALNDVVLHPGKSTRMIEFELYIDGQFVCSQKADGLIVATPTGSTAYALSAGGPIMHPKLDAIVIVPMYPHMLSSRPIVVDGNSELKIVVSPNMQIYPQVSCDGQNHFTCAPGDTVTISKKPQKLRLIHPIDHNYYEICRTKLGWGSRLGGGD
Kind of series: X-ray crystal structure, […] Å. The series is classed as binding.

Series [2] has as its target T1, PaNADK (NAD kinase from Pseudomonas aeruginosa). Nature of the series: G6PDH-coupled enzyme assay, global competitive inhibition fit. The format is biochemical.
Series [3] deals with T2, LmNADK (NADK 1 from Listeria monocytogenes) (Listeria monocytogenes, UniProt Q8Y8D7).
T2 sequence (Q8Y8D7 1-264): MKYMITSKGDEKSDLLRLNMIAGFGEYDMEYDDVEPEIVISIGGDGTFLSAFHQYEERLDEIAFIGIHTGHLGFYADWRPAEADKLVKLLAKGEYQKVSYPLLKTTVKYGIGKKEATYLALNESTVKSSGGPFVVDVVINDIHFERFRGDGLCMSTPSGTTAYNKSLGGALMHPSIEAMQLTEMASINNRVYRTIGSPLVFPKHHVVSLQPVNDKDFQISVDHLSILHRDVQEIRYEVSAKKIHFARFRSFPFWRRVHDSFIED
Nature of the series: enzyme inhibition. The format is biochemical.

Substrate in series [4]: NC(=O)c1ccc[n+]([C@@H]2O[C@H](COP(=O)([O-])OP(=O)(O)OC[C@H]3O[C@@H](n4cnc5c(N)ncnc54)[C@H](O)[C@@H]3O)[C@@H](O)[C@H]2O)c1
Kind of series: purified protein. To be noted: MgATP.

Substrate in series [5]: Nc1ncnc2c1ncn2[C@@H]1O[C@H](COP(=O)(O)OP(=O)(O)OP(=O)(O)O)[C@@H](O)[C@H]1O
Kind of series: purified protein. Particulars: Mg2+.

As to `NC(=O)c1ccc[n+]([C@@H]2O[C@H](COP(=O)([O-])OP(=O)(O)OC[C@H]3O[C@@H](n4cnc5c(N)ncnc54)[C@H](OP(=O)(O)O)[C@@H]3O)[C@@H](O)[C@H]2O)c1` [NADP^+], the “X-ray crystal structure, 2.3 Å” value in series [1] is reported as “we determined the atomic structure of the protein bound to NADP^+ by X‐ray crystallography”.
Regarding `NC(=O)c1cccc([C@@H]2O[C@H](COCC#Cc3nc4c(N)ncnc4n3[C@@H]3O[C@H](CO)[C@@H](O)[C@H]3O)[C@@H](O)[C@H]2O)c1` [compound 1, 5‐O ‐[3‐(adenosin‐8‐yl)prop‐2‐yn‐1‐yl]‐1‐deoxy‐1‐(3‐carbamoylphenyl)‐β‐D‐ribofuranose], the results for the Ki in series [2] and in series [3] were 4.6 ± 0.3 µM and 3.2 ± 0.4 µM, respectively.

B1: PaNADK (NAD kinase from Pseudomonas aeruginosa) (Pseudomonas aeruginosa PAO1) (protein)
chain: T1 sequence (Q9HZC0 1-295)
B1: the figures for the Km in series [4] and in series [5] were 150 µM and 2000 µM, respectively.
